Laboratory results reported in publication PMC5040747, “Preparation and Evaluation of a Novel Class of Amphiphilic Amines as Antitumor Agents and Nanocarriers for Bioactive Molecules” (Pharmaceutical Research, 2016).
Read-outs that look alike come from different tables or passages of the source.

What was measured:
CHLA-20 cells = test: Cell killing activity of drugs complexed with RC16 (MTT); format: cell-based, human; conditions: CHLA-20, free drug at concentration corresponding to that present in the complex, 48 h, percent of untreated cells
Protocol: (§1) Aqueous solutions of RC16 (10 mM, 1 mL) were mixed with ethanol solutions of Doxorubicin, Paclitaxel or Etoposide (1 mM, 1 mL). After stirring 12 h at 25 C the mixtures were dialyzed through 5000 Da MW cutoff dialysis membranes against 100 ml water by changing the external medium every 8 h for 3 days. The RC16-drug complex collected after dialysis was freeze-dried and the solid residue obtained was spectrophotometrically analysed to estimate the percentage of drug in the final product. The anticancer activity of each complexed drug was evaluated in CHLA-20 as the difference between the activity of the complex and the pure RC16 at the same concentration of the complex.

[1] = Encapsulation of drugs in RC16 micelles; format: physicochemical; conditions: drug complexed in RC16 micelles, after dialysis and freeze-drying
Protocol: as §1

A673 = test: MTT cell proliferation assay, A673; format: cell-based; conditions: Homo sapiens, A673, Ewing's Sarcoma, read-out: Cell killing activity IC50
Protocol: (§2) Cells were plated in 96-well tissue culture plates at a density of 1 × 10^3 cells/well, allowed to attach 24 h, and then left untreated or treated with growth medium containing different concentrations of the tested RCn compounds previously dissolved in PBS. After different time periods the cell vitality was determined by MTT assay according to the manufacture’s instruction (Promega). Results are reported as the micromolar concentration of RCn reducing cell survival to 50% (IC50).

143.98.2 = test: MTT cell proliferation assay, 143.98.2; format: cell-based; conditions: Homo sapiens, 143.98.2, Osteosarcoma, read-out: Cell killing activity IC50
Protocol: as §2

SK-N-AS = test: MTT cell proliferation assay, SK-N-AS; format: cell-based; conditions: Homo sapiens, Neuroblastoma, read-out: Cell killing activity IC50
Protocol: as §2

S462TY = test: MTT cell proliferation assay, S462TY; format: cell-based; conditions: Homo sapiens, Malignant Peripheral Nerve Sheath Tumor, read-out: Cell killing activity IC50
Protocol: as §2

Ramos = test: MTT cell proliferation assay, Ramos; format: cell-based; conditions: Homo sapiens, Lymphoma, read-out: Cell killing activity IC50
Protocol: as §2

Rh41 = test: MTT cell proliferation assay, Rh41; format: cell-based; conditions: Homo sapiens, Rh41, Rhabdomyosarcoma, read-out: Cell killing activity IC50
Protocol: as §2

Encapsulation efficiency (weight percentage of drug in the final complex) [1]	Compound	Cell viability, % CTR (free drug) (CHLA-20 cells)	IC50 (A673; 24 h)	IC50 (A673; 48 h)	IC50 (143.98.2; 24 h)	IC50 (143.98.2; 48 h)	IC50 (SK-N-AS; 24 h)	IC50 (SK-N-AS; 48 h)	IC50 (S462TY; 24 h)	IC50 (S462TY; 48 h)	IC50 (Ramos; 24 h)	IC50 (Ramos; 48 h)	IC50 (Rh41; 24 h)	IC50 (Rh41; 48 h)
2.3 ± 0.78%	COc1cccc2c1C(=O)c1c(O)c3c(c(O)c1C2=O)C[C@@](O)(C(=O)CO)C[C@@H]3O[C@H]1C[C@H](N)[C@H](O)[C@H](C)O1 [DOXO, Doxorubicin]	27.62 ± 0.55 % CTR	–	–	–	–	–	–	–	–	–	–	–	–
1.0 ± 0.59%	COc1cc([C@@H]2c3cc4c(cc3[C@@H](O[C@@H]3O[C@@H]5CO[C@@H](C)O[C@H]5[C@H](O)[C@H]3O)[C@H]3COC(=O)[C@H]23)OCO4)cc(OC)c1O [ETO, Etoposide]	65.80 ± 5.76 % CTR	–	–	–	–	–	–	–	–	–	–	–	–
1.8 ± 0.73%	CC(=O)O[C@H]1C(=O)[C@@]2(C)[C@H]([C@H](OC(=O)c3ccccc3)[C@]3(O)C[C@H](OC(=O)[C@H](O)[C@@H](NC(=O)c4ccccc4)c4ccccc4)C(C)=C1C3(C)C)[C@]1(OC(C)=O)CO[C@@H]1C[C@@H]2O [PTX, Paclitaxel]	56.93 ± 4.61 % CTR	–	–	–	–	–	–	–	–	–	–	–	–
–	CCCCCC1CN2CCCN3CCCCCC132 (stereo not drawn) [RC7, 2-pentyl-4,8-diazatricyclo[6.5.0.0^1,^4]tridecane]	–	5730 nM	4110 nM	4510 nM	3780 nM	5210 nM	3430 nM	5620 nM	3900 nM	4550 nM	3120 nM	5780 nM	4010 nM
–	CCCCCCCCC1CN2CCCN3CCCCCC132 (stereo not drawn) [RC10, 2-octyl-4,8-diazatricyclo[6.5.0.0^1,^4]tridecane]	–	2600 nM	2020 nM	2550 nM	1680 nM	2140 nM	1560 nM	2390 nM	1780 nM	2100 nM	1030 nM	2850 nM	2030 nM
–	CCCCCCCCCCC1CN2CCCN3CCCCCC132 (stereo not drawn) [RC12, 2-decyl-4,8-diazatricyclo[6.5.0.0^1,^4]tridecane]	–	1820 nM	1650 nM	1980 nM	1240 nM	1870 nM	710 nM	2000 nM	1090 nM	1180 nM	740 nM	1750 nM	1160 nM
–	CCCCCCCCCCCCC1CN2CCCN3CCCCCC132 (stereo not drawn) [RC14, 2-dodecyl-4,8-diazatricyclo[6.5.0.0^1,^4]tridecane]	–	1270 nM	1130 nM	1310 nM	780 nM	1200 nM	630 nM	1810 nM	950 nM	960 nM	220 nM	1360 nM	970 nM
–	CCCCCCCCCCCCCCCCC1CN2CCCN3CCCCCC132 (stereo not drawn) [RC18, 2-hexadecyl-4,8-diazatricyclo[6.5.0.0^1,^4]tridecane]	–	1030 nM	980 nM	920 nM	650 nM	1230 nM	750 nM	1670 nM	880 nM	830 nM	170 nM	1010 nM	820 nM
–	CCCCCCCCCCCCCCCCCCC1CN2CCCN3CCCCCC132 (stereo not drawn) [RC20, 2-octadecyl-4,8-diazatricyclo[6.5.0.0^1,^4]tridecane]	–	1220 nM	1350 nM	1090 nM	830 nM	1600 nM	900 nM	1830 nM	1160 nM	970 nM	200 nM	1680 nM	1120 nM
